Measurements published in PMC3425516 (PLoS ONE, 2012).

Assays:
HOP-92 = test: NCI-60 cell lines screening; assay type: cell-based, human; details: HOP-92, Non-Small Cell Lung Cancer panel
Method: (§1) The NCI-60 cancer cell lines screening was conducted by the NCI’s Developmental Therapeutics Program (DTP; http://www.dtp.nci.nih.gov/branches/btb/ivclsp.html).

LOX IMVE = test: NCI-60 cell lines screening; assay type: cell-based, human; details: Melanoma panel
Method: as §1

OVCAR-3 = test: NCI-60 cell lines screening; assay type: cell-based, human; details: OVCAR-3, Ovarian Cancer panel
Method: as §1

EKVX = test: NCI-60 cell lines screening; assay type: cell-based, human; details: Non-Small Cell Lung Cancer panel
Method: as §1

NCI-H322M = test: NCI-60 cell lines screening; assay type: cell-based, human; details: Non-Small Cell Lung Cancer panel
Method: as §1

MDA-MB-435 = test: NCI-60 cell lines screening; assay type: cell-based, human; details: MDA-MB-435, Melanoma panel
Method: as §1

BT-549 = test: NCI-60 cell lines screening; assay type: cell-based, human; details: BT-549, Breast Cancer panel
Method: as §1

SK-OV-3 = test: NCI-60 cell lines screening; assay type: cell-based, human; details: SK-OV-3, Ovarian Cancer panel
Method: as §1

A549/ATCC = test: NCI-60 cell lines screening; assay type: cell-based, human; details: Non-Small Cell Lung Cancer panel
Method: as §1

recombinant human HDAC6 = recombinant human HDAC6 (Homo sapiens, UniProt Q9UBN7); test: biochemical
Sequence of recombinant human HDAC6 (Q9UBN7 whole entry): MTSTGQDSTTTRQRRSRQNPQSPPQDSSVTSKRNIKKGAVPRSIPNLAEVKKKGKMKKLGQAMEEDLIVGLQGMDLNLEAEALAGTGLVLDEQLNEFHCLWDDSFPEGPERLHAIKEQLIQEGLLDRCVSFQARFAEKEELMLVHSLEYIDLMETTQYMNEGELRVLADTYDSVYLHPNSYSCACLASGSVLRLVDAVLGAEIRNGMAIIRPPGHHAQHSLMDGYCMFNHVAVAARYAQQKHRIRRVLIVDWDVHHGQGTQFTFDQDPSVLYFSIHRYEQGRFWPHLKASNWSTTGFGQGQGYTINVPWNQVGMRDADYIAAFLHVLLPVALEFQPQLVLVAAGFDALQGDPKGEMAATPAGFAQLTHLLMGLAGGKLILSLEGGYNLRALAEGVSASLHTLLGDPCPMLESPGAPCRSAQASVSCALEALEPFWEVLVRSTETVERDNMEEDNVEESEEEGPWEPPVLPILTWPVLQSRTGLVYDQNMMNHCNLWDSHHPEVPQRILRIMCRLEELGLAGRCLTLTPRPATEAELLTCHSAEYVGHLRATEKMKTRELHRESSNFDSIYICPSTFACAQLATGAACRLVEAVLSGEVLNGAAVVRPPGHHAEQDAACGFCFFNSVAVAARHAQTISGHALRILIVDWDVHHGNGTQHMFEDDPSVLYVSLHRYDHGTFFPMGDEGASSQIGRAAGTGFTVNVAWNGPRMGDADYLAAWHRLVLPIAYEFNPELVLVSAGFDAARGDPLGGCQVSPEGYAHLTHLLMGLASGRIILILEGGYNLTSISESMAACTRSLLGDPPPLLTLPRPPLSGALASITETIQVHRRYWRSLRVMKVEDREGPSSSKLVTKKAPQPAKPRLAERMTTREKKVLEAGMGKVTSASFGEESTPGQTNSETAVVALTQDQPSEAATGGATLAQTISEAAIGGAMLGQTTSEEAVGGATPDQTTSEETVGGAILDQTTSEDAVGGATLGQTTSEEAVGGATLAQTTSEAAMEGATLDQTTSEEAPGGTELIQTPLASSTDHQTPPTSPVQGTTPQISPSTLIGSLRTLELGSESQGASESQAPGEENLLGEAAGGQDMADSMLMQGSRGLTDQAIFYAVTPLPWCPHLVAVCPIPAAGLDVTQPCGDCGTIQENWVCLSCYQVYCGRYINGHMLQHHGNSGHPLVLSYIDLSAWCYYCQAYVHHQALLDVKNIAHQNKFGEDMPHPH
Excerpt: (§2) The HDACs in vitro activities of recombinant human HDAC 1, 2, 4, 6 and 8 (BPS Biosciences) were detected by fluorigenic release of 7-amino-4-methylcoumarin from substrate upon deacetylase enzymatic activity.

recombinant human HDAC8 = recombinant human HDAC8 (Homo sapiens, UniProt Q9BY41); test: biochemical
Sequence of recombinant human HDAC8 (Q9BY41 whole entry): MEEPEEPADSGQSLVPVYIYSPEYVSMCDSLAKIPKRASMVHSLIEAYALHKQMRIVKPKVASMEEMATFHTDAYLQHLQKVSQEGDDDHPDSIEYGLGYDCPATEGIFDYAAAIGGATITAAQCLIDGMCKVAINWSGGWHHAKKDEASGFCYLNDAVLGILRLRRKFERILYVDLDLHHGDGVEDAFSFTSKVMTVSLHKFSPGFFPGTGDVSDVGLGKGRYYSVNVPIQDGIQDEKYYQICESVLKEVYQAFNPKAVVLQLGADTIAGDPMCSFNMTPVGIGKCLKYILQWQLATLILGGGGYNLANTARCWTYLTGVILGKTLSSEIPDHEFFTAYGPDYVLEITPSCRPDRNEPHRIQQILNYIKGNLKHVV
Excerpt: as §2

[1] = Homo sapiens, read-out: LC50 (the source's name)

SMILES: O=C(C=Cc1ccc2c(c1)CCN2S(=O)(=O)c1ccccc1)NO [MPT0E028, 3-(1-benzenesulfonyl-2,3-dihydro-1H-indol-5-yl)-N-hydroxy-acrylamide]
- TGI (HOP-92): 814 nM
- GI50 (HOP-92; Homo sapiens): 210 nM
- CC50 (HOP-92; [1]): 18000 nM
- GI50 (LOX IMVE; Homo sapiens): 222 nM
- CC50 (LOX IMVE; [1]): 2880 nM
- TGI (LOX IMVE): 718 nM
- GI50 (OVCAR-3; Homo sapiens): 233 nM
- CC50 (OVCAR-3; [1]): 7300 nM
- TGI (OVCAR-3): 933 nM
- GI50 (EKVX; Homo sapiens): 534 nM
- TGI (EKVX): >100000 nM
- GI50 (NCI-H322M; Homo sapiens): 186 nM
- CC50 (NCI-H322M; [1]): > 100000 nM
- TGI (NCI-H322M): 11400 nM
- GI50 (MDA-MB-435; Homo sapiens): 146 nM
- CC50 (MDA-MB-435; [1]): 11300 nM
- TGI (MDA-MB-435): 706 nM
- TGI (BT-549): 5840 nM
- GI50 (BT-549; Homo sapiens): 680 nM
- CC50 (BT-549; [1]): > 100000 nM
- GI50 (SK-OV-3; Homo sapiens): 190 nM
- CC50 (SK-OV-3; [1]): 4260 nM
- TGI (SK-OV-3): 601 nM
- GI50 (A549/ATCC; Homo sapiens): 230 nM
- CC50 (A549/ATCC; [1]): 9030 nM
- TGI (A549/ATCC): 1090 nM
- IC50 (recombinant human HDAC6): 29.5 ± 6.4 nM
- IC50 (recombinant human HDAC8): 2530 ± 315 nM
